Laboratory results published in patent US8604016B2, “Heterocyclic inhibitors of glutaminase” (Calithera Biosciences Inc., priority 2011, dated 2013).
pIC50: −log10 of the molar value.

Target: recombinant form of Glutaminase 1 (GAC) (Homo sapiens, UniProt O94925)
Experiment: Recombinant Enzyme Assay (GAC coupled to GDH, NADH absorbance, no preincubation)
Type: biochemical
Conditions: no preincubation; read-out: GAC Delta N2 IC50 no preinc
Experimental: Enzymatic reaction was started with the addition of 50 μL of enzyme solution (50 mM Tris-HCl pH 8.0, 0.2 mM EDTA, 150 mM K2HPO4, 0.1 mg/ml BSA, 1 mM DTT, 10 ppm antifoam, 4 units/ml GDH, 4 mM adenosine diphosphate, and 4 nM GAC) and read in a Molecular Devices M5 plate reader at 20° C. The plate reader was configured to read absorbance (λ=340 nm) in kinetic mode for 15 minutes. Data was recorded as milli-absorbance units per minute and slopes were compared to a control compound and a DMSO-only control on the same plate. Compounds with slopes less than the DMSO control were considered inhibitors and plate variability was assessed using the control compound.

pIC50	SMILES
6.47	COc1ccc(CC(=O)Nc2nnc(CCSCCc3nnc(NC(=O)Cc4ccc(OC)c(OC)c4)s3)s2)cc1OC [Compound 157]
6.42	O=C(Cc1ccccc1)Nc1nnc(CCSCCc2nnc(NC(=O)Cc3ccccn3)s2)s1 [Compound 359]
6.24	O=C(CCN1CCOCC1)OCC(C(=O)Nc1nnc(CCCCc2nnc(NC(=O)C(CO)c3ccccc3)s2)s1)c1ccccc1 (stereo not shown) [Compound 228, 3-((5-{4-[5-(3-hydroxy-2-phenylpropanamido)-1,3,4-thiadiazol-2-yl]butyl}-1,3,4-thiadiazol-2-yl)amino)-3-oxo-2-phenylpropyl 3-morpholinopropanoate]
6.54	O=C(Nc1nnc(CCCCc2nnc(NC(=O)C(O)c3ccccc3)s2)s1)C(O)c1ccccc1 (stereo not shown) [Compound 174]
6.09	NCCC(C(=O)Nc1nnc(CCSCCc2nnc(NC(=O)C(CN)c3ccccc3)s2)s1)c1ccccc1 (stereo not shown) [Compound 214]
< 4.30	CC(C)(C)C(=O)OCN(C(=O)Cc1ccccc1)c1nnc(CCSCCc2nnc(N(COC(=O)C(C)(C)C)C(=O)Cc3ccccc3)s2)s1 [Compound 16]
6.15	O=C(Nc1nnc(CCCCc2nnc(NC(=O)[C@H](O)Cc3ccccc3)s2)s1)[C@H](O)Cc1ccccc1 [Compound 169]
7.25	O=C(Cc1cccc2[nH]ccc12)Nc1nnc(CCCCc2nnc(NC(=O)Cc3cccc4[nH]ccc34)s2)s1 [Compound 323]
5.00	O=C(Nc1nnc(CCSCCc2nnc(NC(=O)[C@H](O)c3ccccc3)s2)s1)[C@H](O)c1ccccc1 [Compound 81]
6.29	CC(C)(C)OC(=O)N1CCCC(CC(=O)Nc2nnc(CCSCCc3nnc(NC(=O)CC4CCCN(C(=O)OC(C)(C)C)C4)s3)s2)C1 (stereo not shown) [Compound 112]
6.74	O=C(Cc1cccs1)Nc1nnc(CCCCc2nnc(NC(=O)Cc3cccs3)s2)s1 [Compound 87]
< 4.70	O=C(Cc1coc2ccccc12)Nc1nnc(CCCCc2nnc(NC(=O)Cc3coc4ccccc34)s2)s1 [Compound 222]
6.21	Cn1cc(CC(=O)Nc2nnc(CCSCCc3nnc(NC(=O)Cc4cn(C)c5ccccc45)s3)s2)c2ccccc21 [Compound 200]
5.89	COC(C(=O)Nc1nnc(CCCCc2nnc(NC(=O)C(OC)c3ccccc3)s2)s1)c1ccccc1 (stereo not shown) [Compound 65]
6.55	CC(C)COC(=O)Nc1nnc(CCCCc2nnc(NC(=O)Cc3ccccc3)s2)s1 [Compound 370]
6.55	O=C(Cc1ccccc1)Nc1nnc(CCSCc2nnc(NC(=O)[C@@H](O)c3ccccc3)s2)s1 [Compound 377]
5.47	CC(C)(C)OC(=O)N1CCN(C(C(=O)Nc2nnc(CCSCCc3nnc(NC(=O)Cc4ccccc4)s3)s2)c2ccccc2)CC1 (stereo not shown) [Compound 70]
< 4.70	O=C(Cc1ccccc1)Nc1nnc(CSCc2nnc(NC(=O)Cc3ccccc3)s2)s1 [Compound 145]
5.10	O=C(Nc1nnc(CCSCCc2nnc(NC(=O)C3COc4ccccc4O3)s2)s1)C1COc2ccccc2O1 (stereo not shown) [Compound 41]

pIC50	SMILES
5.48	O=C(CCN1CCOCC1)OC(C(=O)Nc1nnc(CCCCc2nnc(NC(=O)C(OC(=O)CCN3CCOCC3)c3cccc(Cl)c3)s2)s1)c1cccc(Cl)c1 (stereo not shown) [Compound 332]
< 4.70	CC1(C(=O)Nc2nnc(CCSCCc3nnc(NC(=O)C4(C)CCCO4)s3)s2)CCCO1 (stereo not shown) [Compound 119]
6.66	O=C(Cc1ccccc1)Nc1nnc(CCSCc2nnc(NC(=O)Cc3cccc(OCCN4CCOCC4)c3)s2)s1 [Compound 378]
< 4.30	O=C(CCc1ccccc1)Nc1nnc(CCSCCc2nnc(NC(=O)CCc3ccccc3)s2)s1 [Compound 75]
< 4.30	CC(C)(C)OC(=O)N[C@@H](C(=O)Nc1nnc(CCSCCc2nnc(NC(=O)[C@H](NC(=O)OC(C)(C)C)c3ccccc3)s2)s1)c1ccccc1 [Compound 46]
< 4.30	CC(C)(C)OC(=O)N1CCN(C(C(=O)Nc2nnc(CCSCCc3nnc(NC(=O)C(c4ccccc4)N4CCN(C(=O)OC(C)(C)C)CC4)s3)s2)c2ccccc2)CC1 (stereo not shown) [Compound 76]
< 4.30	CC(C)[C@H](N)C(=O)Nc1nnc(CCCCc2nnc(NC(=O)[C@@H](N)C(C)C)s2)s1 [Compound 73]
< 4.30	CC(C)[C@H](NC(=O)OC(C)(C)C)C(=O)Nc1nnc(CCCCc2nnc(NC(=O)[C@@H](NC(=O)OC(C)(C)C)C(C)C)s2)s1 [Compound 42]
6.72	Nc1ccc(CC(=O)Nc2nnc(CCCCc3nnc(NC(=O)Cc4ccc(N)cc4)s3)s2)cc1 [Compound 196]
5.08	N[C@@H](C(=O)Nc1nnc(CCSCCc2nnc(NC(=O)[C@H](N)c3ccccc3)s2)s1)c1ccccc1 [Compound 47]
4.68	O=C(CO)Nc1nnc(CCSCCc2nnc(NC(=O)CO)s2)s1 [Compound 253]
< 4.70	CC(C)(C)OC(=O)NC(C(=O)Nc1nnc(CCCCc2nnc(NC(=O)C(NC(=O)OC(C)(C)C)C3CCCC3)s2)s1)C1CCCC1 (stereo not shown) [Compound 113]
< 4.70	CC(=O)OC(C)(C)C(=O)Nc1nnc(CCCCc2nnc(NC(=O)C(C)(C)OC(C)=O)s2)s1 [Compound 96]
6.80	O=C(Cc1ccccc1)Nc1nnc(CCSCc2nnc(NC(=O)Cc3cccc(Cl)c3)s2)s1 [Compound 372]
6.80	COc1ccc(CC(=O)Nc2nnc(CCCCc3nnc(NC(=O)Cc4ccc(OC)c(OC)c4)s3)s2)cc1OC [Compound 160]
5.92	O=C(Cc1ccccc1)Nc1nnc(CCCCc2nnc(NC(=O)[C@@H]3CCCC[C@H]3C(O)c3ccccc3)s2)s1 (stereo partly shown) [Compound 304]
5.06	O=C(Nc1nnc(CCSCCc2nnc(NC(=O)c3ccccc3CO)s2)s1)c1ccccc1CO [Compound 180]
6.74	NS(=O)(=O)c1ccc(CC(=O)Nc2nnc(CCCCc3nnc(NC(=O)Cc4ccc(S(N)(=O)=O)cc4)s3)s2)cc1 [Compound 198]
5.92	COC(=O)Nc1nnc(CCCCc2nnc(NC(=O)Cc3ccccc3)s2)s1 [Compound 387]

pIC50	SMILES
5.62	COc1ccc2c(c1)CC(C(=O)Nc1nnc(CCSCCc3nnc(NC(=O)C4Cc5cc(OC)ccc5O4)s3)s1)O2 (stereo not shown) [Compound 117]
6.49	O=C(Cc1ccco1)Nc1nnc(CCCCc2nnc(NC(=O)Cc3ccco3)s2)s1 [Compound 86]
6.62	O=C(Cc1cccs1)Nc1nnc(CCSCCc2nnc(NC(=O)Cc3cccs3)s2)s1 [Compound 116]
6.37	O=C(Nc1nnc(CCCCc2nnc(NC(=O)[C@@H](O)Cc3ccccc3)s2)s1)[C@@H](O)Cc1ccccc1 [Compound 146]
< 4.70	CC(=O)OC(C(=O)Nc1nnc(CCCc2nnc(NC(=O)C(OC(C)=O)c3ccccc3)s2)s1)c1ccccc1 (stereo not shown) [Compound 171]
5.20	N[C@H](C(=O)Nc1nnc(CCSCCc2nnc(NC(=O)[C@@H](N)c3ccccc3)s2)s1)c1ccccc1 [Compound 175]
6.24	O=C(Nc1nnc(CCCc2nnc(NC(=O)C(CO)c3ccccc3)s2)s1)C(CO)c1ccccc1 (stereo not shown) [Compound 176]
< 4.30	O=C(CC1CCCCC1)Nc1nnc(CCSCCc2nnc(NC(=O)CC3CCCCC3)s2)s1 [Compound 48]
6.40	COc1ccc(C(O)C(=O)Nc2nnc(CCCCc3nnc(NC(=O)C(O)c4ccc(OC)cc4)s3)s2)cc1 (stereo not shown) [Compound 320]
5.60	C[C@H](O)C(=O)Nc1nnc(CCCCc2nnc(NC(=O)Cc3ccccc3)s2)s1 [Compound 321]
< 4.70	CC1(C)OCC(C(=O)Nc2nnc(CCCCc3nnc(NC(=O)C4(c5ccccc5)COC(C)(C)O4)s3)s2)(c2ccccc2)O1 (stereo not shown) [Compound 277]
6.14	CC(CO)(CO)C(=O)Nc1nnc(CCCCc2nnc(NC(=O)Cc3cccc(F)c3)s2)s1 [Compound 152, N,N′-(5-(4-(5-(2-(3-fluorophenyl)acetamido)-1,3,4-thiadiazol-2-yl)butyl)-1,3,4-thiadiazol-2-yl)-3-hydroxy-2-(hydroxymethyl)-2-methylpropanamide]
< 4.70	CC(C)(C)c1ccc(CC(=O)Nc2nnc(CCSCCc3nnc(NC(=O)Cc4ccc(C(C)(C)C)cc4)s3)s2)cc1 [Compound 184]
5.82	CC(C)[C@H](N)C(=O)OCC(C(=O)Nc1nnc(CCCCc2nnc(NC(=O)C(COC(=O)[C@@H](N)C(C)C)c3ccccc3)s2)s1)c1ccccc1 (stereo partly shown) [Compound 291]
5.60	O=C(Nc1nnc(CCSCCc2nnc(NC(=O)C3Cc4ccccc4O3)s2)s1)C1Cc2ccccc2O1 (stereo not shown) [Compound 50]
4.85	CC(CO)(CO)C(=O)Nc1nnc(CCCCc2nnc(NC(=O)C(C)(CO)CO)s2)s1 [Compound 151]
4.49	CC(CCC(C)c1nnc(NC(=O)Cc2ccccc2)s1)c1nnc(NC(=O)Cc2ccccc2)s1 (stereo not shown) [Compound 289]
5.52	COC(C(=O)Nc1nnc(CCSCCc2nnc(NC(=O)C(OC)c3ccccc3)s2)s1)c1ccccc1 (stereo not shown) [Compound 67]
4.72	NC(C(=O)Nc1nnc(CCCCc2nnc(NC(=O)C(N)C3CCCC3)s2)s1)C1CCCC1 (stereo not shown) [Compound 131]

SMILES	pIC50
O=C(Cc1ccccc1Cl)Nc1nnc(CCSCCc2nnc(NC(=O)Cc3ccccc3Cl)s2)s1 [Compound 255]	6.42
CCOC(=O)Nc1nnc(CCSCCc2nnc(NC(=O)OCC)s2)s1 [Compound 356]	< 4.70
CCOC(=O)Nc1nnc(CCCCc2nnc(NC(=O)Cc3ccccc3)s2)s1 [Compound 369]	6.09
COc1ccccc1-c1cccc(CC(=O)Nc2nnc(CCCCc3nnc(NC(=O)Cc4cccc(-c5ccccc5OC)c4)s3)s2)c1 [Compound 326]	< 4.70
O=C(Cc1cccc(-n2cccn2)c1)Nc1nnc(CCCCc2nnc(NC(=O)Cc3cccc(-n4cccn4)c3)s2)s1 [Compound 285]	6.72
O=C(Cc1cccc(Br)c1)Nc1nnc(CCCCc2nnc(NC(=O)Cc3cccc(Br)c3)s2)s1 [Compound 284]	< 4.70
CC(C(=O)Nc1nnc(CCSCCc2nnc(NC(=O)C(C)c3ccccc3Cl)s2)s1)c1ccccc1Cl (stereo not shown) [Compound 261]	6.15
